According to US10865236B2, “Bispecific antigen-binding molecules that bind a staphylococcus target antigen and a complement component and uses thereof” (priority 2017, dated 2020):

Tested on: S. aureus MW2
Test: Mouse MRSA bacteremia model: bispecific antibody alone or in combination with linezolid, kidney, lung and heart burden Day 4
Type: in vivo, Humanized C1q (C1q^Hu/Hu) mice
Protocol: The bacteremia model described above in Example 12 was used to evaluate the activity of an anti-IsdB× anti-C1q bispecific antibody against S. aureus MRSA strains in reducing bacterial burden when used in combination with a standard-of-care antibiotic.
Humanized C1q (C1q^Hu/Hu) mice were infected intraperitoneally with 1.3×10^8 colony forming units (CFUs) per mouse of S. aureus MW2 in a volume of 200 ul. S. aureus MW2 was grown to log phase, OD600≤1, in TSB at 37° C. and washed 3 times in PBS and adjusted to the desired density for infection. Starting at eighteen (18) hours following infection, 2 groups of mice (n=5) were treated with 80 mg/kg of linezolid by oral gavage (200 ul volume), twice daily on Days 1, 2 and 3. […] Mice were weighed daily until Day 4 post infection and change in weight was recorded. Mice were euthanized on Day 4 and kidneys, lungs and hearts were collected to determine organ burden. Briefly, the organs were homogenized in 5 mL PBS using gentleMACS Octo Dissociator (Miltenyi Biotec) using programme-E. The tissue homogenates were then diluted in PBS and multiple 10-fold serial dilutions were plated on LB agar plates and incubated at 37° C. overnight. The next day, individual colonies were counted to determine bacterial burden and results were reported as CFUs/gram tissue.

CC(=O)NC[C@H]1CN(c2ccc(N3CCOCC3)c(F)c2)C(=O)O1 [linezolid, reference compound]
log reduction in overall CFUs, lung (MW2): 2 log
log reduction in overall CFUs, kidneys (MW2, compared to infection control (8.5 logs)): less than 2 log
log CFU reduction, heart (MW2, limit of detection 10^3 CFU): 3 log
CFUs/g heart (single agent (H1H20631D 100 ug/mouse, Antibiotic None; or Linezolid, no antibody), heart): 2.08E+05 CFUs/g
CFUs/g kidney (single agent (H1H20631D 100 ug/mouse, Antibiotic None; or Linezolid, no antibody), kidney): 6.99E+06 CFUs/g
CFUs/g lung (single agent (H1H20631D 100 ug/mouse, Antibiotic None; or Linezolid, no antibody), lung): 6.98E+05 CFUs/g
